Results published in PubChem BioAssay AID248 (DTP/NCI, 2004).
Where “and” joins values, the source holds several entries; their conditions need not be identical. Equal entries are not always repeated. Inconclusive results and toxic doses are left out. No stated cut-off is given here; in the data, active means T/C of 150% or more; inactive means T/C below 125%.

Test system: L1210 leukemia ip in BDF1 mice, survival T/C
Test: NCI In Vivo Anticancer Drug Screen. Data for tumor model L1210 Leukemia (intraperitoneal) in B6D2F1 (BDF1) mice
Conditions: endpoint: mean survival time, higher = longer survival
Method in brief: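 Mice bearing the transplanted tumor received compound or vehicle. Survival of the treated group was divided by that of the vehicle-treated control group to give the ratio.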

[1] = dose: 100.0 mg/kg/injection, schedule: Q04DX003 (ip), vehicle: Klucel (hydroxypropylcellulose) (HPC)
[2] = dose: 100.0 mg/kg/injection, schedule: Q04DX003 (ip), vehicle: saline with Tween-80
[3] = dose: 200.0 mg/kg/injection, schedule: Q04DX003 (ip), vehicle: Klucel (hydroxypropylcellulose) (HPC)
[4] = dose: 400.0 mg/kg/injection, schedule: Q04DX003 (ip), vehicle: Klucel (hydroxypropylcellulose) (HPC)
[5] = dose: 100.0 mg/kg/injection, schedule: Q01DX001 (ip), vehicle: carboxymethylcellulose (CMC)
[6] = dose: 100.0 mg/kg/injection, schedule: Q04DX003 (ip), vehicle: saline
[7] = dose: 200.0 mg/kg/injection, schedule: Q04DX003 (ip), vehicle: saline
[8] = dose: 400.0 mg/kg/injection, schedule: Q04DX003 (ip), vehicle: saline
[9] = dose: 100.0 mg/kg/injection, schedule: Q01DX009 (ip), vehicle: Klucel (hydroxypropylcellulose) (HPC)
[10] = dose: 200.0 mg/kg/injection, schedule: Q01DX009 (ip), vehicle: Klucel (hydroxypropylcellulose) (HPC)
[11] = dose: 400.0 mg/kg/injection, schedule: Q01DX009 (ip), vehicle: Klucel (hydroxypropylcellulose) (HPC)
[12] = dose: 100.0 mg/kg/injection, schedule: Q01DX009 (ip), vehicle: saline
[13] = dose: 200.0 mg/kg/injection, schedule: Q01DX009 (ip), vehicle: saline
[14] = dose: 400.0 mg/kg/injection, schedule: Q01DX009 (ip), vehicle: saline
[15] = dose: 100.0 mg/kg/injection, schedule: Q01DX001 (ip), vehicle: saline
[16] = dose: 400.0 mg/kg/injection, schedule: Q01DX001 (ip), vehicle: saline

Measured: T/C

NC(=O)N/N=C\c1ccco1
inactive: dose: 25.0 mg/kg/injection, schedule: Q04DX003 (ip), vehicle: saline with Tween-80 106 % of control | dose: 50.0 mg/kg/injection, schedule: Q04DX003 (ip), vehicle: saline with Tween-80 100 % of control | [1] 106 % of control | [2] 94 % of control | [3] 102 % of control | [4] 98 % of control

CCCCCCCCCCCCCCCN(CCCl)CCCl
inactive: [5] 93 % of control | dose: 200.0 mg/kg/injection, schedule: Q01DX001 (ip), vehicle: carboxymethylcellulose (CMC) 96 % of control

CN(C)CCN(C)Cc1cc(=O)[nH]c(=O)[nH]1
inactive: [6] 96 % of control | [7] 100 % of control | [8] 100 % of control

C=CCc1ccc(OC(=O)NC(C)C)c(OC)c1
inactive: dose: 100.0 mg/kg/injection, schedule: Q01DX001 (ip), vehicle: Klucel (hydroxypropylcellulose) (HPC) 89 % of control | [9] 97 % of control and 88 % of control | dose: 100.0 mg/kg/injection, schedule: Q04DX002 (ip), vehicle: Klucel (hydroxypropylcellulose) (HPC) 98 % of control and 100 % of control | [1] 93 % of control | dose: 200.0 mg/kg/injection, schedule: Q01DX001 (ip), vehicle: Klucel (hydroxypropylcellulose) (HPC) 101 % of control | [10] 111 % of control and 91 % of control | dose: 200.0 mg/kg/injection, schedule: Q04DX002 (ip), vehicle: Klucel (hydroxypropylcellulose) (HPC) 98 % of control and 112 % of control | [3] 97 % of control | dose: 400.0 mg/kg/injection, schedule: Q01DX001 (ip), vehicle: Klucel (hydroxypropylcellulose) (HPC) 100 % of control | [11] 88 % of control | dose: 400.0 mg/kg/injection, schedule: Q04DX002 (ip), vehicle: Klucel (hydroxypropylcellulose) (HPC) 112 % of control and 119 % of control | [4] 101 % of control

COc1cc(OC)c(C(=O)c2ccccc2N)c(OC)c1
inactive: [2] 89 % of control | dose: 200.0 mg/kg/injection, schedule: Q04DX003 (ip), vehicle: saline with Tween-80 87 % of control

Cc1cc(=O)[nH]c2c(Br)cccc12
inactive: dose: 75.0 mg/kg/injection, schedule: Q04DX003 (ip), vehicle: Klucel (hydroxypropylcellulose) (HPC) 87 % of control | dose: 150.0 mg/kg/injection, schedule: Q04DX003 (ip), vehicle: Klucel (hydroxypropylcellulose) (HPC) 97 % of control | dose: 300.0 mg/kg/injection, schedule: Q04DX003 (ip), vehicle: Klucel (hydroxypropylcellulose) (HPC) 97 % of control

CCOC(=O)c1cnc(SC)nc1Nc1ccc(F)cc1
inactive: [1] 88 % of control | [3] 100 % of control | [4] 95 % of control

CCCNc1ncc(C(=O)O)c(=O)[nH]1
inactive: [2] 93 % of control

O=C(NCCCl)Nc1ccc(O)cc1
inactive: [12] 101 % of control | [1] 98 % of control | [13] 105 % of control | [3] 94 % of control | [14] 90 % of control | [4] 100 % of control

S=C([S-])N1CCCCC1.S=C([S-])N1CCCCC1.[Zn]
inactive: dose: 18.8 mg/kg/injection, schedule: Q04DX003 (ip), vehicle: saline 92 % of control | dose: 37.5 mg/kg/injection, schedule: Q04DX003 (ip), vehicle: saline 92 % of control | dose: 75.0 mg/kg/injection, schedule: Q01DX001 (ip), vehicle: saline 88 % of control | dose: 75.0 mg/kg/injection, schedule: Q04DX003 (ip), vehicle: saline 96 % of control

CC(=O)OCc1cccc(C)n1
inactive: [12] 97 % of control | [6] 94 % of control and 102 % of control | [13] 96 % of control | [7] 100 % of control | [14] 100 % of control | [8] 93 % of control and 97 % of control

O=C(Nc1ccccc1F)Nc1cc(Cl)ccc1Cl
inactive: dose: 100.0 mg/kg/injection, schedule: Q01DX009 (ip), vehicle: saline sonified 91 % of control | [1] 89 % of control | dose: 200.0 mg/kg/injection, schedule: Q01DX009 (ip), vehicle: saline sonified 93 % of control | [3] 94 % of control | dose: 400.0 mg/kg/injection, schedule: Q01DX009 (ip), vehicle: saline sonified 93 % of control | [4] 86 % of control

Cc1ccc(NC(=O)Nc2ccccc2C)c(C)c1
inactive: [9] 93 % of control | [1] 103 % of control | [10] 90 % of control | [3] 91 % of control | [4] 96 % of control

CCOC(=O)c1ccc(NC(=O)Nc2cccc(C(C)=O)c2)cc1
inactive: [9] 95 % of control | [10] 93 % of control | [11] 101 % of control

CCCCCCCCC(C)C
inactive: dose: 100.0 mg/kg/injection, schedule: Q04DX002 (ip), vehicle: saline with Tween-80 100 % of control | dose: 200.0 mg/kg/injection, schedule: Q04DX002 (ip), vehicle: saline with Tween-80 97 % of control

Cn1nc(SCc2ccccc2)c(N)nc1=O
inactive: [15] 102 % of control | dose: 200.0 mg/kg/injection, schedule: Q01DX001 (ip), vehicle: saline 100 % of control | [16] 101 % of control

CC(=O)OCC(=O)c1cc(OC(C)=O)c(OC(C)=O)c(OC(C)=O)c1
inactive: [15] 91 % of control | [16] 94 % of control

CC[P+](c1ccccc1)(c1ccccc1)c1ccccc1
inactive: dose: 0.62 mg/kg/injection, schedule: Q01DX009 (ip), vehicle: saline 100 % of control | dose: 0.62 mg/kg/injection, schedule: Q04DX003 (ip), vehicle: saline 100 % of control | dose: 1.25 mg/kg/injection, schedule: Q01DX009 (ip), vehicle: saline 100 % of control | dose: 1.25 mg/kg/injection, schedule: Q04DX003 (ip), vehicle: saline 97 % of control | dose: 2.5 mg/kg/injection, schedule: Q01DX009 (ip), vehicle: saline 100 % of control | dose: 2.5 mg/kg/injection, schedule: Q04DX003 (ip), vehicle: saline 97 % of control

CN1C(=O)CC(/C=C\[N+](=O)[O-])c2ccccc21 (stereo not given)
inactive: [5] 94 % of control | dose: 400.0 mg/kg/injection, schedule: Q01DX001 (ip), vehicle: carboxymethylcellulose (CMC) 104 % of control

CCCCCCCCCCOP(OCCCCCCCCCC)Oc1ccccc1
inactive: [6] 102 % of control | [7] 93 % of control | [8] 102 % of control

SCC1SCCCS1
inactive: dose: 12.5 mg/kg/injection, schedule: Q04DX002 (ip), vehicle: saline with Tween-80 97 % of control | dose: 25.0 mg/kg/injection, schedule: Q04DX002 (ip), vehicle: saline with Tween-80 113 % of control | dose: 50.0 mg/kg/injection, schedule: Q04DX002 (ip), vehicle: saline with Tween-80 97 % of control

CC1CC(OC(=O)CCN2CC2)CC(C)(C)C1 (stereo not given)
inactive: dose: 2.5 mg/kg/injection, schedule: Q01DX009 (ip), vehicle: Klucel (hydroxypropylcellulose) (HPC) 98 % of control | dose: 5.0 mg/kg/injection, schedule: Q01DX009 (ip), vehicle: Klucel (hydroxypropylcellulose) (HPC) 101 % of control | dose: 20.0 mg/kg/injection, schedule: Q01DX009 (ip), vehicle: Klucel (hydroxypropylcellulose) (HPC) 113 % of control | dose: 20.0 mg/kg/injection, schedule: Q04DX003 (ip), vehicle: Klucel (hydroxypropylcellulose) (HPC) 101 % of control | dose: 40.0 mg/kg/injection, schedule: Q01DX009 (ip), vehicle: Klucel (hydroxypropylcellulose) (HPC) 107 % of control | dose: 40.0 mg/kg/injection, schedule: Q04DX003 (ip), vehicle: Klucel (hydroxypropylcellulose) (HPC) 97 % of control | dose: 80.0 mg/kg/injection, schedule: Q04DX003 (ip), vehicle: Klucel (hydroxypropylcellulose) (HPC) 106 % of control
